In US5681823A, “P^1, P^4 -dithio-P^2 -P^3 -monochloromethylene 5', 5'"-diadenosine P^1, P^4 -tetraphosphate as antithrombotic agent” (PRP Inc., priority 1996, dated 1997):

What was measured:
Type in all cases: cell-based, human
platelet aggregation = assay: Platelet aggregation induced by ADP and agonists other than ADP; settings: for IC50: Homo sapiens, Platelet; for effect on collagen-induced aggregation: agonist collagen, in words; for effect on ristocetin-induced platelet aggregation: agonist ristocetin; for effect on thrombin-induced platelet aggregation: agonist thrombin
Protocol: (§1) Unless otherwise provided below, the experimental procedures were performed according to the procedures provided in U.S. Pat. No. 5,049.550 (Zamecnik '550), the entire contents of which are incorporated herein by reference. Some alternative procedures (e.g., release reaction, PF3 assays) and a number of additional studies also are provided (e.g., cytoplasmic calcium mobilization, fibrinogen binding site, agonists other than ADP, platelet cAMP and distribution of CHCl-AP4 A into blood components). Blood was collected in a 0.1 volume of 3.8% sodium citrate from healthy human volunteers who had abstained from antiplatelet agents for at least 10 days. Platelet rich plasma (PRP) was separated by a gradual centrifugation and adjusted to 3.3×10^8 platelets per ml plasma. PRP has been utilized in the Examples unless otherwise stated.
The release reaction appears to be a unique response following platelet activation. ADP, among several platelet constituents, appears to play an important role in the enhancement of activation. We have examined the role of ADP that is released in platelet aggregation induced by other agonists including arachidonic acid, collagen, epinephrine, thrombin and ristocetin. Platelet aggregability induced by a given concentration of agonists was approximately 60-80% in absence of agents. […] This finding supports the above-described observations of the inhibitory effects of the agents on the release reaction.

[1] = tested on: Cytoplasmic Calcium Ion (Ca^++) Mobilization in platelets; assay: Cytoplasmic calcium ion mobilization in platelets (Indo-1, flow cytometer); settings: 6.7 μM ADP
Protocol: as §1
An increment of cytoplasmic Ca^++ in the platelets represents an activated state. Indo-1 acetomethyl ester (Indo-1) commonly has been utilized as the reagent to detect intracellular free Ca^++. Indo-1 reacts with Ca^++ and produces fluorescence which can be monitored in a dual wavelength (408/485) flow cytometer (Coulter EPIC Systems). Platelets were incubated with Indo-1 at 37° C. for 45 min. Excess Indo-1 in the medium was removed by gel-filtration method. Indo-1-loaded platelets were then activated by 6.7 μM ADP in the absence or presence of thio-CHCl-AP4 A (3.3 μM) or CHCl-AP4 A (6.7 μM). Fluorescence intensity of the platelets was monitored and plotted against platelet number. The histograms generated from the plots were analyzed. Unstimulated platelets registered fluorescence intensity (FI) between 42 and 250 with a peak at 133 (base line control).

[2] = tested on: fibrinogen receptor (GPIIb/IIIa); assay: Fibrinogen binding sites on ADP-activated platelets (FITC-anti-fgn, flow cytometer); settings: for % binding (fibrinogen bound on ADP-activated platelets): 5 μM ADP
Protocol: Platelet responses to the agonists include in addition to aggregation a) release reaction, b) fibrinogen receptor silos (GPIIb/IIIa) and, c) platelet factor 3 activation. The effects of thio-CHCl-AP4 A and the reference agent (CHCl-AP4 A, compound E10 of Zamecnik '550) were tested on each of these responses.
Platelet surface receptors for fibrinogen are known to be increased by activation. The effects of thio-CHCl-AP4 A and CHCl-AP4 A on fibrinogen binding sites of activated platelets were assayed by means of Fluorescein isothiocyanate conjugated antifibrinogen antibody (FITC-anti-fgn) techniques in a flow cytometer (FACS, Becton-Dickinson). PRP was used at 1:20 final dilution. Platelets were activated by ADP in the presence or absence of the agents at 22° C. for 5 min. After incubation of activated platelets with FITC-Anti-Fgn at 22° C. for 10 min., 0.5 ml of 0.2% formyl saline (0.2% formaldehyde in 0.9% NaCl) was added to inhibit further activation. Samples included platelets that were a) unstimulated; b) stimulated with 5 μM ADP; c) exposed to agents (CHCl-AP4 A or thio-CHCl-AP4 A) for 5 minutes before ADP stimulation.

platelet cAMP level = assay: Level of intracellular platelet cAMP (etheno-cAMP, HPLC); settings: for platelet cAMP level: 37° C., 5 min, control 31.6; for effect on the platelet cAMP level: in words
Protocol: as §1
The inhibitory effect of cAMP on platelet aggregation has been known as a counteraction of calcium ion mobilization. Accordingly, the inhibitory effects of the agents with respect to a cAMP mediated mechanism was tested. PRP was incubated with saline (control), agents (at 20 μM and 100 μM), or forskolin (10 μM) at 37° C. for 5 min. After incubation, extracts were made using Ba(OH)2 and ZnSO4. Cyclic AMP in the extracts was converted into the etheno-cAMP derivative, and the levels were estimated by HPLC using a fluorescence detector (W. Wojcik et al., J. Cyclic Nucleotide Res. 7:27-35 (1981)). The level of cAMP in an unknown extract was determined by extrapolation from a standard graph. A linear relationship between the cAMP level in the extracted samples and fluorescence detection was observed. […] However, this increase may not be a specific effect. Although adenosine contamination in the tested AP4 A agents was not detected, it is possible that either cellular adenosine nucleotide metabolic products or contaminated adenosine in the tested agents may be responsible for the elevated cAMP level.

[3] = agonist Arachidonic Acid (1 mM)

Row | Compound | IC50 (platelet aggregation; agonist ADP (5 μM)) [µM] | IC50 (platelet aggregation; [3]) [µM] | IC50 (platelet aggregation; agonist Collagen (μg)) [µM] | IC50 (platelet aggregation; agonist Epinephrine (10 μM)) [µM] | effect on collagen-induced aggregation (platelet aggregation) | effect on ristocetin-induced platelet aggregation (platelet aggregation) | effect on thrombin-induced platelet aggregation (platelet aggregation) | effect on ADP-induced Ca^++ mobilization ([1]; 6.7 μM CHCl-AP4 A) | % binding (fibrinogen bound on ADP-activated platelets) ([2]; 2.5 μM agent) [% binding] | % binding (fibrinogen bound on ADP-activated platelets) ([2]; 5.0 μM agent) [% binding] | % binding (fibrinogen bound on ADP-activated platelets) ([2]; 7.5 μM agent) [% binding] | % binding (fibrinogen bound on ADP-activated platelets) ([2]; 10 μM agent) [% binding] | platelet cAMP level (platelet cAMP level; 20 μM agent) [nM] | effect on the platelet cAMP level (platelet cAMP level; 20 μM) | platelet cAMP level (platelet cAMP level; 100 μM agent) [nM] | effect on the platelet cAMP level (platelet cAMP level; 100 μM) | effect on ADP-induced Ca^++ mobilization ([1]; 3.3 μM thio-CHCl-AP4 A) | inhibition of fibrinogen bound on ADP-activated platelets ([2]; compared to CHCl-AP4 A, in words)
1 | Nc1ncnc2c1ncn2[C@@H]1O[C@H](COP(=O)(O)OP(=O)(O)C(Cl)P(=O)(O)OP(=O)(O)OC[C@H]2O[C@@H](n3cnc4c(N)ncnc43)[C@H](O)[C@@H]2O)[C@@H](O)[C@H]1O (stereo partly shown) [CHCl-AP4 A] | 3.28 | 19 | > 100 | 24 | unaffected | Neither thio-CHCl-AP4 A nor CHCl-AP4 A affected | Neither thio-CHCl-AP4 A nor CHCl-AP4 A affected | blocked completely | 70.9 | 41.3 | 36.1 | 23.8 | 30.6 | no effect | 56.7 | moderate increase | – | –
2 | Nc1ncnc2c1ncn2[C@@H]1O[C@H](COP(O)(=S)OP(=O)(O)C(Cl)P(=O)(O)OP(O)(=S)OC[C@H]2O[C@@H](n3cnc4c(N)ncnc43)[C@H](O)[C@@H]2O)[C@@H](O)[C@H]1O (stereo partly shown) [Thio-CHCl-AP4 A, P^1, P^4 -dithio -P^2 -P^3 monochloromethylene 5', 5'" diadenosine P^1, P^4 -tetraphosphate] | 0.81 | 9.12 | 9 | 5.25 | detectable inhibitory effect | Neither thio-CHCl-AP4 A nor CHCl-AP4 A affected | Neither thio-CHCl-AP4 A nor CHCl-AP4 A affected | – | 9.9 | 5.3 | – | – | 28.6 | no effect | 54.4 | moderate increase | blocked completely | inhibited preferentially
